Results as given in BindingDB's records for PubMed 31761384 (China Pharmaceutical University, 2020).
Bridge positions count the residues as written; N and C are the ends. Peptide text beside a SMILES is read from it.

Assay: Inhibition of human PD-1 expressed in rat PBMCs/human PD-L1 expressed in MDA-MB-231 cells protein-protein interaction assessed as increase in PBMCs proliferation

- EC50: 0.41 nM
Structure (SMILES): CC[C@H](C)[C@@H]1NC(=O)[C@H](CC(C)C)NC(=O)[C@H](Cc2ccccc2)NC(=O)CSC[C@@H](C(=O)NCC(N)=O)NC(=O)[C@H](CCCNC(=N)N)NC(=O)[C@H](Cc2ccccc2)NC(=O)[C@H](C(C)C)NC(=O)[C@H](CCCNC(=N)N)NC(=O)[C@H](CC(=O)O)NC(=O)[C@H](CCCNC(=N)N)NC(=O)[C@H]([C@@H](C)CC)NC(=O)[C@H](C(C)C)NC1=O ({CH2CO}-FLIVIRDRVFRCG-NH2; thioether N-12)
